Laboratory results: US6417183B1, “1,4-diazacycloheptane derivatives” (Astrazenela UK Limited, priority 1997, dated 2002)
Counter-ions that a name gives are not always drawn.

Columns and labels:
[1] = test system: L-type voltage sensitive calcium channels (3H-D888 binding site); experiment: 3H-D-888 binding to rat brain cortical membranes; conditions: displacement of 3H-D888, rat cortical membranes, 60 minutes at 25° C.
Procedure: ^3H-D-888 Binding to Rat Brain Cortical Membranes
The method of ^3H-D-888 binding was a modification of Reynolds, I. J., Snowman, A. M. and Synder, S. H. (−)-[^3H] Desmethoxyverapamil labels multiple calcium channel modular receptors in brain and skeletal muscle membranes: differentiation by temperature and dihydropyridines. J. Pharmacol. Exp. Ther. 237: no.3, 731-738, 1986.
The assay tubes contained the following: assay buffer: 50 mM Hepes, 0.2% BSA, pH 7.4 radioligand: 1 πM ^3H-D888 (Amersham) rat cortical membranes: 6 mg/ml original wet weight
This mixture was incubated for 60 minutes at 25° C. The assay was terminated by filtering with a Brandel Cell Harvester over Whatman GF/C filters that had been soaked for at least 120 minutes in 0.3% polyethylenamine (PEI) and washed three times with 5 mL of wash buffer containing 20 mM Hepes, 20 mM MgCl2, pH 7.4. Specific binding was measured with 10 μM methoxyverapamil (D-600). This assay was used to determine in vitro selectivity of compounds vs. L-type voltage sensitive calcium channels, i.e high affinity for the ^3H-D888 binding site would show a lack of selectivity. For example the compound of Example 4 gave a value of about 19.000 nM in this test.
Rat brain cortical membrane preparation: Male Sprague-Dawley Rats were sacrificed by decapitation and the brains were quickly excised. […]

[2] = biological target: T1, [3H]-emopamil binding site (Cavia porcellus, UniProt Q60490); experiment: 3H-Emopamil binding to guinea pig liver membranes; conditions: displacement of 0.96 nM (-)-3H-emopamil, 60 minutes at 37° C.
T1 construct: from tissue; host or cells: guinea pig liver membranes
T1 sequence (Q60490 1-229): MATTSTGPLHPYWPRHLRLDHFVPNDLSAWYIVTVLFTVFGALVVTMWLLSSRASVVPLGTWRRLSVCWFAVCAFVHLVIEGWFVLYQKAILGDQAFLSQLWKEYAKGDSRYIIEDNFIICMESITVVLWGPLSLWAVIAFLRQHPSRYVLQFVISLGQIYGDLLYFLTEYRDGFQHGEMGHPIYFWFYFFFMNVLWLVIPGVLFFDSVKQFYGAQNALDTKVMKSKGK
Procedure: ^3H-Emopamil Binding to Guinea Pig Liver Membranes
The method of (−)-^3H-emopamil binding was a modification of Zech, C., Staudinger R., Mühlbacher, J. and Glossmann, H. Novel sites for phenylalkylamines: characterization of a sodium-sensitive drug receptor with (−)-^3H-emopamil. Eur. J. Pharm. 208: 119-130, 1991.
The reaction mixture contained:
Assay buffer: 10 mM Tris-HCl, 0.1 mM phenylmethylsulfonyl fluoride (PMSF), 0.2% bovine serum albumin (BSA), pH 7.4 at 4° C.
Radioligand: 0.96 nM (−)-^3H-emopamil (Amersham).
Guinea pig liver membranes: 40 mg/mL original wet weight.
This mixture was incubated for 60 minutes at 37° C. The incubation was terminated by filtering with a Brandel Cell Harvester over Whatman GF/C filters that had been soaked for at least 120 minutes in 0.3% polyethylenimine (PEI) and washed three times with 5 mL of wash buffer containing 10 mM Tris-HCl, 10 mM MgCl2, 0.2% BSA, pH 7.4 at 25° C. Specific binding was defined with 10 μM emopamil. […]
Guinea-pig liver membrane preparation: Male guinea pigs were sacrificed by CO2 asphyxiation with dry ice. The livers were quickly excised and weighed and rinsed in membrane preparation buffer containing 10 mM Hepes, 1 mM Tris base-EDTA, 250 mM […] Teflon-glass homogenizer with three strokes on ice. […]

Structure (SMILES) | melting point | value in 3H-D-888 binding test (in vitro selectivity vs. L-type VSCC) [1] | IC50 [2]
CN1CCCN(C2CCCc3cc(F)ccc32)CC1 (centres unmarked) (as salt: salt) [Example 16, 1-Methyl-4-(6-fluoro-1,2,3,4-tetrahydro-1-naphthalenyl)homopiperazine] | 78.8 to 79.5 °C | – | –
CCc1ccc2c(c1)CCCC2N1CCCN(C)CC1 (centres unmarked) (as salt: salt) [Example 25, 1-Methyl-4-(6-ethyl-1,2,3,4-tetrahydro-1-naphthalenyl)homopiperazine] | 131.5 to 132.8 °C | – | –
CN1CCCN([C@H]2CCCc3ccccc32)CC1 [Example 4, S(+) 1-Methyl-4-(1,2,3,4-tetrahydro-1-naphthalenyl)homopiperazine] | – | about 19.000 nM | 17 nM
COc1cccc2c1CCCC2N1CCCN(C)CC1 (centres unmarked) (as salt: hydrochloride) [Example 7, 1-Methyl-4-(5-methoxy-1,2,3,4-tetrahydro-1-naphthalenyl)homopiperazine] | 172.2 to 176.6 °C | – | –
c1ccc2c(c1)CCCC2N1CCCNCC1 (centres unmarked) (as salt: salt) [Example 2, N-(1,2,3,4-Tetrahydro-1-naphthalenyl)homopiperazine] | 107 to 109.4 °C | – | –
CC(C)N1CCCN(C2CCCc3ccccc32)CC1 (centres unmarked) (as salt: hydrochloride) [Example 13, 1-Isopropyl-4-(1,2,3,4-tetrahydro-1-naphthalenyl)homopiperazine] | 149.5 to 151 °C | – | –
CN1CCCN(C2CCCc3ccccc32)CC1 (centres unmarked) (as salt: maleate) [Example 1, 1-Methyl-4-(1,2,3,4-tetrahydro-1-naphthalenyl)homopiperazine] | 125.4 to 126.3 °C | – | –
